Results reported in patent US20170152245A1 (National Taiwan University, priority 2015, published 2017).
Values belong to the molecule of their own block, whether it stands above or below them.

Experiments:
[1] = tested on: mice carotid artery; assay: FeCl3-induced thrombus formation in mice carotid artery; type: in vivo; conditions: for time to FeCl3-induced occlusion: heparin 10 U kg^−1 or aspirin 40 μg g^−1 i.v.; for FeCl3-induced thrombus formation: heparin 100 U kg^−1 or aspirin 80 μg g^−1 i.v.
Procedure: FIG. 14 The antithrombotic activity of nstpbp5185 in FeCl3-induced thrombi formation in mice carotid artery. (A) Mice were intravenously administered with Heparin (10 or 100 U kg^−1), Aspirin (40 or 80 μg g^−1), or different doses of nstpbp5185 (B). After 5 min, FeCl3 injury was induced by a filter paper saturated with ferric chloride solution (10%). After removal of the paper, carotid blood flow (ml min^−1) was monitored continuously until thromboembolism formation or for 60 min. (C) Mice were orally administered with different doses of Aspirin and nstpbp5185 (D). Both drugs were suspended in 1% CMC. Blood flow monitoring were recorded used analyzed Labchart software (AD instruments). Data are presented as the mean±SEM (n≧3). **P<0.01 and ***P<0.001 as compared with the vehicle control (DMSO).
Mice were intravenously or orally administered with different doses of nstpbp5185.

[2] = tested on: human platelet suspension; assay: Collagen-induced platelet aggregation in human platelet suspension; type: cell-based; conditions: collagen 10 μg/ml; for % inhibition collagen: human platelet suspension, preliminary, compound concentration not given
Procedure: (§1) Human platelet suspension (PS) was prepared according to the method described previously. Briefly, blood sample, freshly obtained from healthy volunteers who had taken no medications during the preceding 2 weeks, was treated with acid citrate/dextrose (ACD) in a volume ratio of 9:1. After centrifugation at 120 g, 25° C. for 9 min, platelet-rich plasma was transferred into another plastic tube and incubated with heparin (6.4 U/ml) as well as prostaglandin E1 (1 μM). Platelets were spun down by centrifugation at 500 g, 25° C. for 8 min and subsequently washed two times with Tyrode solution (NaH2PO4 0.4 mM; NaCl 136.9 mM; KCl […]; NaHCO3 11.9 mM; CaCl2 2 mM; MgCl2 2.1 mM; glucose 11.1 mM; BSA 3.5 mg/ml; pH 7.35-7.4). The washed platelets were finally suspended in Tyrode's solution and the platelet count was adjusted to 3.75×10^8 platelets/ml. For platelet-rich plasma (PRP) preparation, whole blood was anticoagulated with 1/10 vol of sodium citrate (3.8%, w/v) and centrifuged at 150 g, 25° C. for 9 min.
(§2) Platelet aggregation was measured turbidimetrically with a Lumi-aggregometer (Payton Scientific) at 37° C. under stirring condition (900 rpm). Platelet suspensions were prewarmed to 37° C. for 2 min in a silicone-treated glass cuvette. Nstpbp5185 was added 3 min before the addition of platelet-aggregation inducers. The extent of platelet aggregation was determined by recording the increase of light transmission relative to that of control (maximal aggregation, as 100%) for 6 min after the addition of inducer. The final volume and platelet count for measuring platelet aggregation were 500 μl and 3×10^8/ml, respectively.

[3] = tested on: human platelet suspension; assay: ADP-induced platelet aggregation in human platelet suspension; type: cell-based; conditions: human platelet suspension; preliminary; compound concentration not given
Procedure: as §1, §2

[4] = tested on: human platelet suspension; assay: U46619-induced platelet aggregation in human platelet suspension; type: cell-based; conditions: for IC50: Homo sapiens, Platelet, U46619-induced aggregation, platelet suspension, read-out: P.S(U46619) IC50
Procedure: as §1, §2

[5] = biological target: T1, Thromboxane synthase (Homo sapiens, UniProt P24557); conditions: cited from earlier work; for Thromboxane synthase: Table III arrows, reference drugs
T1 construct: MDS
T1 sequence (P24557 1-533): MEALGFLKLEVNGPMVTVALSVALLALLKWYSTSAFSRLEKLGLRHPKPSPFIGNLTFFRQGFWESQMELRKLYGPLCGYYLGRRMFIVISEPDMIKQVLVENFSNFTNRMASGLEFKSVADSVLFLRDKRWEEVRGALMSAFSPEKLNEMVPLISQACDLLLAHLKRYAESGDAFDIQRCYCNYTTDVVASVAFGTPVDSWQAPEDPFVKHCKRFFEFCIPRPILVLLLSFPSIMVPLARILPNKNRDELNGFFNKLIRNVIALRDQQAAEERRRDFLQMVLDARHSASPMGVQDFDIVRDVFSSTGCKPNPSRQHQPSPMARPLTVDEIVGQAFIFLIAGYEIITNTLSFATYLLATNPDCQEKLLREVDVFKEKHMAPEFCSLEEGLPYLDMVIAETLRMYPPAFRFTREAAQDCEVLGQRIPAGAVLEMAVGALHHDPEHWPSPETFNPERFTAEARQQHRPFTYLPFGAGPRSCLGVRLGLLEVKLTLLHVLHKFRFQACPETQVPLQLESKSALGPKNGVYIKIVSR

[6] = biological target: T2, thromboxane receptor (Homo sapiens, UniProt P21731); conditions: cited from earlier work; for Thromboxane receptor: Table III arrows, reference drugs
T2 sequence (P21731 1-343): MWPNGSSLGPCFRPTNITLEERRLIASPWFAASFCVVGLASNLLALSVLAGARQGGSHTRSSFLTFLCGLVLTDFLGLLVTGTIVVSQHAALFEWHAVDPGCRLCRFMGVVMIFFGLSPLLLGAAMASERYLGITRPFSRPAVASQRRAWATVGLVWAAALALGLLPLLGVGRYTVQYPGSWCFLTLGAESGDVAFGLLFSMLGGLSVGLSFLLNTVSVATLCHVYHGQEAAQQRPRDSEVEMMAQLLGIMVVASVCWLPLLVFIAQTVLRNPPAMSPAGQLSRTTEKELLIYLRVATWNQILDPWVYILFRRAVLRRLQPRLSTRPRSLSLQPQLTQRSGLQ

[7] = tested on: mesenteric venules of mice; assay: Fluorescein sodium-induced platelet thrombus formation in mesenteric venules of mice; type: in vivo
Procedure: A modification of the method was used. Male ICR mice (12-14 g) were anesthetized with sodium pentobarbital (50 mg/kg, i.p.). […] Five min later, various doses of nstpbp5185 (2 and 4 μg/g), aspirin (150 and 250 μg/g), or DMSO (control) were administered by i.v. through other lateral tail vein. The injected volume of the nstpbp5185, aspirin, or DMSO (control) was smaller than 10 μl. A segment of the small intestine with its mesentery attached was exteriorized through a midline incision on the abdominal wall and placed onto a transparent plastic plate for microscopic observation. Frequent rinsing of the mesentery with warm isotonic saline kept at 37° C. was performed to prevent the mesentery from drying out. Microvessels in the mesentery were observed under transillumination from a halogen lamp. Venules with diameters of 30-40 μm were selected to be irradiated to produce a microthrombus. In the epi-illumination system, light from a 100-W mercury lamp was filtered through a filter (B-2A, Nikon, Tokyo, Japan) with a dichromic mirror (DM 510, Nikon). The filtered light eliminated wavelengths below 520 nm irradiated a microvessel through an objective lens (20×). The area of irradiation was about 100 μm in diameter on the focal plane. Ten minutes after administration of the dye, the irradiation by filtered light and a timer were simultaneously started, and thrombus formation was observed on a TV-monitor. Occlusion time was recorded as the time interval for inducing thrombus formation leading to cessation of blood flow.
After giving 50 μg/g fluorescein sodium, the irradiation of mesenteric venules induced thrombus formation which is consist of activated platelets and fibrin clots. […] In the vehicle-treated group, the average TTO was approximately 143.71±4.99 sec (n=17). The group pre-treated with compound 5185 (10 μg/g), the average TTO value was 208.67±6.99 sec (n=12).

[8] = tested on: rats; assay: Gastric damage in rats; type: in vivo; conditions: 150 μg g^−1 oral, 3 h
Procedure: Rats (Wistar) were fasted overnight then given aspirin at dose of 150 mg/kg or nstpbp5185 at 40 mg/kg. Both drugs were suspended in 1% carboxymethylcellulose. Three hours later, the rats were sacrificed, the stomach excised, and the extent of hemorrhagic erosions scored by an observer unaware of treatment the rats received. Each lesion larger than 2 mm was counted for comparison. The stomach was fixed in formalin (pH, 7.4) and photographed.

[9] = tested on: PGI2 formation; conditions: Table III arrows, reference drugs; cited from earlier work
[10] = tested on: human platelet suspension; assay: Thromboxane B2 formation in human platelet suspension; type: cell-based; conditions: Homo sapiens, Platelet; collagen-activated platelets; 500 μM; read-out: inhibition of TXB2 formation
Procedure: Human platelet suspension (3.75×10^8/ml) was preincubated in the presence or absence of nstpbp5185 or aspirin for 3 min before the addition of collagen or AA. Six minutes after the addition of agonist, […] indomethacin and 2 mM EDTA were added to the reaction suspension. After centrifugation in an Eppendorf centrifuge at 14,000 g for 2 min, the thromboxane B2 (TXB2), the stable metabolite of TXA2, levels of the supernatant were measured using a competitive enzyme-immuno assay (EIA) kit according to the instructions of the manufacturer.

[11] = tested on: human platelet-rich plasma; assay: Collagen-induced platelet aggregation in human platelet-rich plasma; type: cell-based; conditions: human PRP, data not shown, read-out: IC50 collagen-induced platelet aggregation in human PRP
Procedure: as §1, §2

[12] = tested on: human platelet suspension; assay: Arachidonic acid-induced platelet aggregation in human platelet suspension; type: cell-based; conditions: AA 200 μM
Procedure: as §1, §2

[13] = tested on: Cox-1,-2; conditions: Table III arrows, reference drugs; cited from earlier work

Molecule: heparin
time to FeCl3-induced occlusion [1]: about 10 min
FeCl3-induced thrombus formation [1]: blocked

Molecule: COc1cccc(Cn2c(-c3ccc(C)o3)nc3ccccc32)c1 [Example 6]
% inhibition collagen [2]: 19.1%
% inhibition ADF [3]: 41.4 (n = 2) %

Molecule: Cc1ccc2c(c1CCC(=O)O)CC[C@@H](NS(=O)(=O)c1ccc(Cl)cc1)C2 [Example S18886]
Thromboxane synthase [5]: ↓
Thromboxane receptor [6]: ↓

Molecule: O=C(O)CCCCO/N=C(/c1cccnc1)c1cccc(C(F)(F)F)c1 [Ridogrel]
Thromboxane synthase [5]: ↓
IC50 ([5]; reference drug): 0.001 µM
Thromboxane receptor [6]: ↓
IC50 ([6]; reference drug): 1 µM
PGI2 formation [9]: ↑

Molecule: Cc1ccc(-c2nc3cc(F)ccc3n2Cc2ccccc2F)o1 [Example 38a, 5-fluoro-1-(2-fluorobenzyl)-2-(5-methyl-2-furyl)benzimidazole]
IC50 [4]: 4.14 µM

Molecule: Cc1ccc(-c2nc3cc(Cl)c(Cl)cc3n2Cc2ccccc2[N+](=O)[O-])o1 [Example 57, 5,6-dichloro-1-(2-nitrobenzyl)-2-(5-methyl-2-furyl)benzimidazole]
IC50 [4]: > 50 µM

Molecule: Cc1ccc(-c2nc3ccc(F)cc3n2Cc2cccc(Cl)c2)o1 [Example 32b, 6-fluoro-1-(3-chlorobenzyl)-2-(5-methyl-2-furyl)benzimidazole]
IC50 [4]: 3.09 µM

Molecule: Cc1ccc(-c2nc3cc(F)ccc3n2Cc2cccc(F)c2)o1 [Example 37a, 5-fluoro-1-(3-fluorobenzyl)-2-(5-methyl-2-furyl)benzimidazole]
IC50 [4]: 1.7 µM

More lines, main results first:

IC50 [4]: 4.63 µM
Molecule: Cc1ccc(Cn2c(-c3ccc(C)o3)nc3ccccc32)cc1 [Example 9, 1-(p-Methylbenzyl)-2-(5-methyl-2-furyl)benzimidazole]
% inhibition collagen [2]: 1.1%
% inhibition ADF [3]: 17.4 (n = 3) %

IC50 ([2]; Platelet, washed human platelets, read-out: IC50 collagen-induced platelet aggregation in human PS): ~190 µM
IC50 [11]: 5100 ± 700 µM
IC50 [12]: 313 ± 18.7 µM
Molecule: CC(=O)Oc1ccccc1C(=O)O [aspirin, reference compound]
effect on U46619-induced platelet aggregation ([4]; 500 μM, data not shown): no effect
occlusion time ([7]; 250 μg g^−1 i.v.): 175.5 ± 25.3 s
occlusion time at return to control, within 60 min ([7]; 250 μg g^−1 i.v.): 82.6 ± 9.4 s
occlusion time within 40 min after administration ([7]; 250 μg g^−1 i.v.): 155.0 ± 7.1 s
time until occlusion time returned to the control value ([7]; 250 μg g^−1 i.v.): ≤ 60 min
change of occlusion time ([7]; low dose (below 250 μg g^−1)): did not significantly change
time to FeCl3-induced occlusion [1]: about 10 min
FeCl3-induced thrombus formation [1]: blocked
gastric lesions (>2 mm) [8]: marked lesions
PGI2 formation [9]: ↓
inhibition at 500 µM [10]: 96%
Cox-1,-2 [13]: ↓

IC50 [4]: 13.1 µM
Molecule: Cc1ccc(-c2nc3ccccc3n2Cc2ccccc2F)o1 [Example 13, 1-(o-Fluorobenzyl)-2-(5-methyl-2-furyl)benzimidazole]

IC50 [4]: 32.2 µM
Molecule: COc1ccc(Cn2c(-c3ccc(C)o3)nc3ccc(F)cc32)cc1 [Example 34b, 6-fluoro-1-(4-methoxybenzyl)-2-(5-methyl-2-furyl)benzimidazole]

IC50 [4]: 38 µM
Molecule: COc1cccc(Cn2c(-c3ccc(C)o3)nc3cc(Cl)ccc32)c1 [Example 50a, 5-chloro-1-(3-methoxybenzyl)-2-(5-methyl-2-furyl)benzimidazole]

IC50 [4]: 1.74 µM
Molecule: Cc1ccc(-c2nc3cc(Cl)c(Cl)cc3n2Cc2cccc(F)c2)o1 [Example 64, 5,6-dichloro-1-(3-fluorobenzyl)-2-(5-methyl-2-furyl)benzimidazole]

IC50 [4]: 8.88 µM
Molecule: COc1cccc(Cn2c(-c3ccc(C)o3)nc3cc(Cl)c(Cl)cc32)c1 [Example 62, 5,6-Dichloro-1-(3-methoxybenzyl)-2-(5-methyl-2-furyl)benzimidazole]

IC50 [4]: 14.6 µM
Molecule: Cc1cccc(Cn2c(-c3ccc(C)o3)nc3cc(F)ccc32)c1 [Example 40a, 5-fluoro-1-(3-methylbenzyl)-2-(5-methyl-2-furyl)benzimidazole]

IC50 [4]: 37.3 µM
Molecule: Cc1ccc(-c2nc3cc(Cl)ccc3[nH]2)o1 [Example 42]

IC50 [4]: 4.29 µM
Molecule: Cc1ccc(-c2nc3ccccc3n2Cc2ccccn2)o1 [Example 22, 1-(2-Picoyl)-2-(5-methyl-2-furyl)benzimidazole]
